# Laboratory results taken from article PMC10279920, “Single-molecule visualization of Pif1 helicase translocation on single-stranded DNA” (The Journal of Biological Chemistry, 2023).
# Positions count from the first letter of the chain named.
# Columns and labels:
# Assay in all cases: ATP hydrolysis, [γ-32P]-ATP TLC, Michaelis-Menten fit
# Assay type in all cases: biochemical
# Conditions in all cases: M13 ssDNA 1.5 μM nt, 10 nM Pif1, 5 mM MgCl2, 60 mM KCl, pH 7.5, 30 °C, no RPA; labelled compound as tracer
# [1] = target: T1, GFP-Pif1 (Saccharomyces cerevisiae, UniProt P07271, L310A)
# T1 construct: N-terminal superfolder GFP fusion of nuclear isoform residues 40-859, pRSF-Duet-1, E. coli Rosetta2(DE3), Ni-NTA purified
# T1 sequence (P07271 40-859 L310A): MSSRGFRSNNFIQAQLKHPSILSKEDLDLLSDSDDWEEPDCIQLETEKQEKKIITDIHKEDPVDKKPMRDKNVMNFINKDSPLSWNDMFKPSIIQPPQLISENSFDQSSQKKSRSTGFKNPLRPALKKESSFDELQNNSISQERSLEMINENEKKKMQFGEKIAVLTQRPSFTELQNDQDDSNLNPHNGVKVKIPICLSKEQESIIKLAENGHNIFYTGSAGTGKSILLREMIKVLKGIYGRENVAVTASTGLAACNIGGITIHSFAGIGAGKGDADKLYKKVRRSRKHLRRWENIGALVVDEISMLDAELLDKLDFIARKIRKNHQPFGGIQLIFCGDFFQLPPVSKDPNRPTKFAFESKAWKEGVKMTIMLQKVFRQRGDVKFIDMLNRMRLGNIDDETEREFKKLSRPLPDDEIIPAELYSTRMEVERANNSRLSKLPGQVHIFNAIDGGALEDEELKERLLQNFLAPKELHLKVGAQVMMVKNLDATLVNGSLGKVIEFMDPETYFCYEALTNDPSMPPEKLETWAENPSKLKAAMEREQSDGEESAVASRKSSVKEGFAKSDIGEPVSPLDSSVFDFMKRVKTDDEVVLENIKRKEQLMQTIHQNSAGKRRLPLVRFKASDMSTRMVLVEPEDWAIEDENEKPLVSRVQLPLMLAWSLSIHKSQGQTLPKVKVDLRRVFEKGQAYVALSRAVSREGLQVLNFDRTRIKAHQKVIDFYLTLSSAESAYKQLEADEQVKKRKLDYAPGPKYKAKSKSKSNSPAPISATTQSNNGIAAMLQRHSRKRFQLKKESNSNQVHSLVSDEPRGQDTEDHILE
# Method: ATP hydrolysis, [γ-32P]-ATP TLC, Michaelis-Menten fit on GFP-Pif1 | each of the mutant proteins was tested for ATPase activity
# [2] = target: T2, Pif1 (unlabeled, WT Pif1) (Saccharomyces cerevisiae, UniProt P07271)
# T2 construct: nuclear isoform residues 40-859, pRSF-Duet-1, E. coli Rosetta2(DE3), Ni-NTA purified (tag not described), no GFP
# T2 sequence (P07271 40-859): T1 sequence (P07271 40-859 L310A) with A271L
# Method: ATP hydrolysis, [γ-32P]-ATP TLC, Michaelis-Menten fit on Pif1 (unlabeled, WT Pif1) | Values for Vmax, Km, and kcat were determined and compared to WT Pif1
# [3] = target: T3, GFP-Pif1 (Saccharomyces cerevisiae, UniProt P07271, G291P)
# T3 construct: N-terminal superfolder GFP fusion of nuclear isoform residues 40-859, pRSF-Duet-1, E. coli Rosetta2(DE3), Ni-NTA purified
# T3 sequence (P07271 40-859 G291P): T1 sequence (P07271 40-859 L310A) with G252P, A271L
smiles,measurement,setting,value
Nc1ncnc2c1ncn2[C@@H]1O[C@H](COP(=O)(O)OP(=O)(O)OP(=O)(O)O)[C@@H](O)[C@H]1O [ATP],Km,[1],650 ± 630 µM
same,Km,[2],490 ± 370 µM
same,Km,[3],760 ± 290 µM
